The record followed here is the NIST ThermoML archive (doi:10.1016/j.jct.2009.06.003).

For data set [1] the following is noted: DTA.
The nature of data set [2]: Molar enthalpy of transition or fusion. Particulars: DSC.

Numbers after ± are expanded uncertainties.

For the molecule `CC[S+](CC)CC.O=S(=O)([N-]S(=O)(=O)C(F)(F)F)C(F)(F)F` [triethylsulfonium bis((trifluoromethyl)sulfonyl)imide], the Normal melting temperature in data set [1] (Crystal 1) is -10.3 ± 0.5 °C. In addition, in data set [1] (Crystal 2), the Triple point temperature was 241.1 ± 2 K. For the same molecule, the Glass transition temperature in data set [1] is -73.8 ± 2 °C. For the same molecule, the results for the “Molar enthalpy of transition or fusion” value in data set [2] (Crystal 1) and in data set [2] (Crystal 2) were 1.67 ± 0.0669 kcal/mol and 2.25 ± 0.0813 kcal/mol, respectively.
With `CCCCCC[n+]1cccc(C)c1.Cc1ccc(S(=O)(=O)[O-])cc1` [1-hexyl-3-methylpyridinium 4-methylbenzenesulfonate], in data set [1] (Crystal), the Normal melting temperature came to 56.2 ± 0.5 °C. Moreover, in data set [1], the Glass transition temperature was -39 ± 2 °C. The “Molar enthalpy of transition or fusion” value in data set [2] (Crystal) worked out at 2.41 ± 0.0884 kcal/mol.
The matching figures for `CCCC[n+]1cccc(C)c1.Cc1ccc(S(=O)(=O)[O-])cc1` [1-butyl-3-methylpyridinium 4-methylbenzenesulfonate]: 50.6 ± 0.5 °C, -53.0 ± 2 °C and 0.366 ± 0.0406 kcal/mol.
The corresponding values for `Cc1cc(C)[nH+]c(C)c1.Cc1ccc(S(=O)(=O)[O-])cc1` [2,4,6-trimethylpyridinium 4-methylbenzenesulfonate] are 130.6 ± 0.5 °C, -7.8 ± 2 °C and 5.47 ± 0.163 kcal/mol.
`CCCCCCn1cc[n+](C)c1.N#C[S-]` [1-hexyl-3-methylimidazolium thiocyanate]: the Glass transition temperature in data set [1] is -83.2 ± 2 °C.
`CCCC[n+]1ccc(C)cc1.O=S(=O)([N-]S(=O)(=O)C(F)(F)F)C(F)(F)F`: in data set [1] (Crystal), the Normal melting temperature was 18.2 ± 0.5 °C. Also, in data set [1], the Glass transition temperature is -77.2 ± 2 °C. Further, the “Molar enthalpy of transition or fusion” value in data set [2] (Crystal) is 5.24 ± 0.158 kcal/mol.
In the case of `CCn1cc[n+](C)c1.N#C[S-]` [1-ethyl-3-methylimidazolium thiocyanate], in data set [1], the Glass transition temperature is -97.5 ± 2 °C.
As to `Cc1cc[n+](C)cc1.Cc1ccc(S(=O)(=O)[O-])cc1` [1,4-dimethylpyridinium 4-methylbenzenesulfonate], the Normal melting temperature in data set [1] (Crystal) was found to be 151.7 ± 0.5 °C. Further, in data set [2] (Crystal), the “Molar enthalpy of transition or fusion” value was 7.38 ± 0.21 kcal/mol.
